Biological target: PIK3CA (human) (UniProt P42336)
Experiment: Inhibition of PIK3CA Kinase Activity

Sequence of PIK3CA (human) (P42336 whole entry, looked up): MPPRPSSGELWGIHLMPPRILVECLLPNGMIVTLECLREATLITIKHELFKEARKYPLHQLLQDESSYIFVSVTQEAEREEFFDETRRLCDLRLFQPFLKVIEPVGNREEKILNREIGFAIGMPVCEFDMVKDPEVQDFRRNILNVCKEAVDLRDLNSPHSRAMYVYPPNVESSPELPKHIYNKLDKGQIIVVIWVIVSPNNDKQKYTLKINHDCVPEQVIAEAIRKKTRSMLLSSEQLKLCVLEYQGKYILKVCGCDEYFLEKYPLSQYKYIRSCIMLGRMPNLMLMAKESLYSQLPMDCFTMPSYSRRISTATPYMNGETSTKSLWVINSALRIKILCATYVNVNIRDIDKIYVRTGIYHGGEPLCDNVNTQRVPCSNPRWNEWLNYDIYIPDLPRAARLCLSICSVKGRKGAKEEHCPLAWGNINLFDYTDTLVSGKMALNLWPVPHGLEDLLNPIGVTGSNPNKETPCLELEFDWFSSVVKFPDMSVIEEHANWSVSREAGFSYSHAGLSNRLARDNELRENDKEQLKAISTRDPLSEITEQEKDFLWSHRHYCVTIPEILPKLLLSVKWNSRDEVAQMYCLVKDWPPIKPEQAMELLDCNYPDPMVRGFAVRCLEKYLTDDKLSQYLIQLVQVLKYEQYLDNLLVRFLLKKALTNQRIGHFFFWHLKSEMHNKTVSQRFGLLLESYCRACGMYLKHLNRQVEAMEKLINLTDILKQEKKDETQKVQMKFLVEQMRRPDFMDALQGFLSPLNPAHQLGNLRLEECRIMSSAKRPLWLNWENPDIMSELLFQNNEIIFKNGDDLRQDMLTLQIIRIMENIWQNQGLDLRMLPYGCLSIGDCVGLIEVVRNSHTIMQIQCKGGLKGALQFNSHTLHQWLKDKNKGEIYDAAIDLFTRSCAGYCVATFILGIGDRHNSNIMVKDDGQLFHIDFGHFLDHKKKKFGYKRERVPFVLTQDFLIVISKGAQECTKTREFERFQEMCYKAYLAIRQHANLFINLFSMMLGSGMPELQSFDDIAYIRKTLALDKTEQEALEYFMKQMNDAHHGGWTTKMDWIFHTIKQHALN

| IC50 [nM] | SMILES |
| --- | --- |
| < 100 | CN(C)c1nc2c(-c3cnc(N)nc3)nc(N3CCOCC3)nc2n1C1CCCC1 |
| 100 to 1000 | CCC(C)n1c(SC)nc2c(-c3cnc(N)nc3)nc(N3CCOCC3)nc21 (centres undefined) |
| < 100 | Nc1ncc(-c2nc(N3CCOCC3)nc3c2nc(-c2ccsc2)n3C2CCCC2)cn1 |
| < 100 | CC(C)n1c(-c2ccsc2)nc2c(-c3cnc(N)nc3)nc(N3CCOCC3)nc21 |
| 100 to 1000 | CCC(C)n1c(NCCN(C)C)nc2c(-c3cnc(N)nc3)nc(N3CCOCC3)nc21 (centres undefined) |
| < 100 | CC(C)Nc1nc2c(-c3cnc(N)nc3)nc(N3CCOCC3)nc2n1C1CCCC1 |
| 100 to 1000 | CCC(C)n1c(NC(C)C)nc2c(-c3cnc(N)cn3)nc(N3CCOCC3)nc21 (centres undefined) |
| < 100 | CCC(C)n1c(NC(C)C)nc2c(-c3cnc(N)nc3)nc(N3CCOCC3)nc21 (centres undefined) |
| 100 to 1000 | CCOc1nc2c(-c3cnc(N)nc3)nc(N3CCOCC3)nc2n1C(C)CC (centres undefined) |
| < 100 | CC(C)n1c(-c2ccccc2)nc2c(-c3cnc(N)nc3)nc(N3CCOCC3)nc21 |
| < 100 | CCSc1nc2c(-c3cnc(N)nc3)nc(N3CCOCC3)nc2n1C(C)C |
| 100 to 1000 | CCC(C)n1c(N2CCN(CC)CC2)nc2c(-c3cnc(N)nc3)nc(N3CCOCC3)nc21 (centres undefined) |
| 100 to 1000 | CC(C)n1c(OC2CCCC2)nc2c(-c3cnc(N)nc3)nc(N3CCOCC3)nc21 |
| < 100 | CCCCNc1nc2c(-c3cnc(N)nc3)nc(N3CCOCC3)nc2n1C(C)CC (centres undefined) |
| 100 to 1000 | CCC(C)n1c(N2CCCC2)nc2c(-c3cnc(N)nc3)nc(N3CCOCC3)nc21 (centres undefined) |
| < 100 | CC(C)Nc1nc2c(-c3cnc(N)nc3)nc(N3CCOCC3)nc2n1C(C)C |
| 100 to 1000 | CCC(C)n1c(Sc2ccccc2)nc2c(-c3cnc(N)nc3)nc(N3CCOCC3)nc21 (centres undefined) |

| IC50 [nM] | SMILES |
| --- | --- |
| 100 to 1000 | CCSc1nc2c(-c3cnc(N)cn3)nc(N3CCOCC3)nc2n1C(C)CC (centres undefined) |
| < 100 | CCC(C)n1c(N(C)C)nc2c(-c3cnc(N)nc3)nc(N3CCOCC3)nc21 (centres undefined) |
| 100 to 1000 | CCC(C)n1c(N2CCc3ccccc3C2)nc2c(-c3cnc(N)nc3)nc(N3CCOCC3)nc21 (centres undefined) |
| < 100 | CC(C)Nc1nc2c(-c3cnc(N)nc3)nc(N3CCOCC3)nc2n1C1CCCCC1C (centres undefined) |
| 100 to 1000 | CCC(C)n1c(-c2ccccc2)nc2c(-c3cnc(N)nc3)nc(N3CCOCC3)nc21 (centres undefined) |
| < 100 | CC(C)n1c(-c2ccc3c(c2)OCO3)nc2c(-c3cnc(N)nc3)nc(N3CCOCC3)nc21 |
| < 100 | CCC(C)n1c(-c2ccsc2)nc2c(-c3cnc(N)nc3)nc(N3CCOCC3)nc21 (centres undefined) |
| < 100 | CCC(C)n1c(NCCOC)nc2c(-c3cnc(N)nc3)nc(N3CCOCC3)nc21 (centres undefined) |
| 100 to 1000 | CCC(C)n1c(SC)nc2c(-c3cnc(N)cn3)nc(N3CCOCC3)nc21 (centres undefined) |
| < 100 | Nc1ncc(-c2nc(N3CCOCC3)nc3c2nc(NCC2CC2)n3C2CCCC2)cn1 |
| 100 to 1000 | CN1CCN(c2nc3c(-c4cnc(N)nc4)nc(N4CCOCC4)nc3n2C2CCCC2)CC1 |
| 100 to 1000 | CC(C)n1c(-c2ccccc2)nc2c(-c3cnc(N)cn3)nc(N3CCOCC3)nc21 |
| < 100 | CCCCNc1nc2c(-c3cnc(N)nc3)nc(N3CCOCC3)nc2n1C1CCCC1 |
| 100 to 1000 | CC1CCCCC1n1c(N(C)C)nc2c(-c3cnc(N)nc3)nc(N3CCOCC3)nc21 (centres undefined) |
| < 100 | CSc1nc2c(-c3cnc(N)nc3)nc(N3CCOCC3)nc2n1C(C)C |
| < 100 | CC(=O)Nc1cccc(-c2nc3c(-c4cnc(N)nc4)nc(N4CCOCC4)nc3n2C(C)C)c1 |
| 100 to 1000 | CCC(C)n1c(N2CCCC2C)nc2c(-c3cnc(N)nc3)nc(N3CCOCC3)nc21 (centres undefined) |
